Values quoted from earlier work as cited in US8828977B2, “Method of treating a subject suffering from degenerative disc disease using a matrix metalloprotease inhibitor” (priority 2006, dated 2014).
≈ marks a conversion by molar mass, not a printed value. Like-named read-outs stand apart in the source and are kept apart here.

Experiments:
MMP-2 [1] = biological target: T1, MMP-2 (Homo sapiens, UniProt P08253); details: of the seven CMTs evaluated, zymography
T1 sequence (P08253 110-660): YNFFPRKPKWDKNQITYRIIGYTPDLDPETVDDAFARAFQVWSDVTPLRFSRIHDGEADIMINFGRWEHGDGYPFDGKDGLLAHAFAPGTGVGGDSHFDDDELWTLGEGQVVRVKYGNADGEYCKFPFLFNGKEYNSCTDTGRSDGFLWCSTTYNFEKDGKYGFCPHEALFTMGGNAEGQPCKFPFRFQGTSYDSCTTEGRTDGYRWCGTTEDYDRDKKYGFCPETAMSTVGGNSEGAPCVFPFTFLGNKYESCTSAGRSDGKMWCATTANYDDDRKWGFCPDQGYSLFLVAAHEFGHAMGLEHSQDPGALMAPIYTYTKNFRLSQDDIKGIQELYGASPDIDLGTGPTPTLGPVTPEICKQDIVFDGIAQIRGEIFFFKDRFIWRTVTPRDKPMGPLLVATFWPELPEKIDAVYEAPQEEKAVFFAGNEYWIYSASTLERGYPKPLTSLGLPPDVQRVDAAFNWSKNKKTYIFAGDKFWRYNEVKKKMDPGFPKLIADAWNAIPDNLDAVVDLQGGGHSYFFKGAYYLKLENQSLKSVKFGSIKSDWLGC

HUVEC = details: in vitro
[2] = test system: prostate cancer cell lines
[3] = monkeys, any dosing schedule, after three to five doses
[4] = rats
COX-2 = biological target: T2, COX-2 (Homo sapiens, UniProt P35354); details: in vitro
T2 sequence (P35354 18-604): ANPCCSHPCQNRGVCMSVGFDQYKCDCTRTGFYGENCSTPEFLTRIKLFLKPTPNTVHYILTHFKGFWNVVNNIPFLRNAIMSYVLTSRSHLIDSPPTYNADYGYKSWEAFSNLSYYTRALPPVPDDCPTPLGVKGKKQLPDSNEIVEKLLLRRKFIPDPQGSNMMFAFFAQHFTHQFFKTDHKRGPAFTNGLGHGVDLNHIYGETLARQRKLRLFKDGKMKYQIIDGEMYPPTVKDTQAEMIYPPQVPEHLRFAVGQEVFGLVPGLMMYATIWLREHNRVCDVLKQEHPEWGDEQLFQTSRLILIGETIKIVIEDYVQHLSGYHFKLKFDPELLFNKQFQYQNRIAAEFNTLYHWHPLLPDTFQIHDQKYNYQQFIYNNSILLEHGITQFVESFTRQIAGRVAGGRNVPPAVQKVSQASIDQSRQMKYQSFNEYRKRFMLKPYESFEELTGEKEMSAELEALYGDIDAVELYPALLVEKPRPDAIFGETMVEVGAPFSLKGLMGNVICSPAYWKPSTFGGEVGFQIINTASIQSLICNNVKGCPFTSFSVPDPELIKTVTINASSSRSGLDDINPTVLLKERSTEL

[5] = test system: refractory metastatic cancers
[6] = test system: rheumatoid arthritis synoviocytes; details: activity comparable to doxycycline
[7] = stability and solubility inversely related
[8] = test system: lung foci (experimental metastasis); details: SCID mice
[9] = test system: human umbilical vein endothelial cells (HUVECs); details: HUVECs stimulated with angiogenic factors in vitro
human melanoma cell line = details: activity comparable to doxycycline
[10] = not given; remark: listed apart in the source
[11] = 18 KS patients, sampling lasted only 24 h
[12] = test system: AIDS-associated Kaposi's sarcoma
[13] = rats, single oral dose of suspension
[14] = test system: Dunning MatLyLu rat prostate tumor
[15] = test system: metastatic melanoma cells; details: metastatic melanoma cells in vitro
[16] = 142 animals, daily gavage 40 mg/kg for 7 days
MMP-2 [17] = biological target: T1, MMP-2
[18] = not given; remark: listed apart in the source
MMP-9 = MMP-9 (Homo sapiens, UniProt P14780); details: of the seven CMTs evaluated, zymography
[19] = test system: panel of prostate cancer cell lines; details: MTT assays
[20] = two dose-escalation studies in humans
[21] = mice
immune responses = details: in vivo
[22] = 35 patients with refractory metastatic cancers
[23] = non-competitive component, read-out: Ki′ (the dissociation equilibrium constant) value for MMP-2

MMP-9, sequence (P14780 94-707): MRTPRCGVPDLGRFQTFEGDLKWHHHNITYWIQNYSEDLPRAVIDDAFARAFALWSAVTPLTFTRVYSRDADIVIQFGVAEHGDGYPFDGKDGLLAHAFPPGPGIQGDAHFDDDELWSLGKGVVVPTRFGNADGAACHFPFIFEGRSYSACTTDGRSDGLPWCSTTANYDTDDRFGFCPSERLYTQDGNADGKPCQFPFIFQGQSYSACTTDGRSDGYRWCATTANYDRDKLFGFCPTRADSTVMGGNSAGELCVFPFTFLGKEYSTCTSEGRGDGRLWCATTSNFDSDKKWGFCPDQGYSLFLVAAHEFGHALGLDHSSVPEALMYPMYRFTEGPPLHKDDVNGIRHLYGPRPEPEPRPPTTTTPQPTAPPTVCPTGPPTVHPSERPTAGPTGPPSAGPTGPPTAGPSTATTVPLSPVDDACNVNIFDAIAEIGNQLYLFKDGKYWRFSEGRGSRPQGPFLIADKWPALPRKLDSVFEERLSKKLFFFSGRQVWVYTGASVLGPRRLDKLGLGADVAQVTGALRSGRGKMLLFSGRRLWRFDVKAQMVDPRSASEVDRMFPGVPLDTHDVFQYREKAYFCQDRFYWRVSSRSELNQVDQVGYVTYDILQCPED

NC(=O)C1=C(O)C[C@@H]2C[C@@H]3Cc4cccc(O)c4C(=O)C3=C(O)[C@]2(O)C1=O [CMT-3]
rank as MMP-2 inhibitor (MMP-2 [1]): most effective MMP-2 inhibitor
HUVEC proliferation (HUVEC): inhibited HUVEC proliferation
apoptosis, necrosis and cell-cycle arrest ([2]; added to prostate cell lines in vitro): increased apoptosis and necrosis as well as cell-cycle arrest
time of exposure to apoptosis induction ([2]; prostate cancer cell lines): ≤ 4 h
induction of apoptosis ([2]; prostate cancer cell lines, concentration-dependent): induced apoptosis
dose resulting in mortalities [3]: 100 mg/kg/day
water solubility: ~10 µg/mL (≈ 26.9 µM)
terminal half-life [4]: 7 h
COX-2 enzyme activity (COX-2): inhibit COX-2 enzyme activity
patients experiencing some phototoxicity ([5]; 50 mg/m^2/day, sun-block mandatory): over 50%
cases of drug-induced lupus [5, 22]: three cases
cases of reversible sideroblastic anemia [5, 22]: three cases
maximum tolerated dose (MTD) [5, 22]: 98 mg/m^2/day
change between pre- and post-treatment levels of MMP-2 or MMP-9 ([5]; 35 patients, overall): no significant change
sunburn (photosensitivity), dose-limiting ([5]; highest dose 98 mg/m^2/day, despite prophylactic measures): all 18 patients developed sunburn
musculoskeletal side effects ([5]; human trials): no reports
disease-stabilization ([5]; three out of seven patients with tumors of non-epithelial origin): 43%
inhibiting the in vitro invasive ability [6]: most active
pH of maximum stability [7]: < 4
metastatic invasion compared with control animals ([8]; higher dose 100 mg/kg): did not significantly impact
number of lung foci ([8]; orally at 40 mg/kg): significantly reduced
microtubule formation [9]: inhibited microtubule formation
inhibiting the in vitro invasive ability (human melanoma cell line): most active
dose with histopathological lesions in the small intestine and thymus ([10]; rats): 100 mg/kg/day
plasma level at which dose-limiting gastrointestinal toxicities occurred ([10]; rats (stated for both species)): ≥ 15000 ng/mL
median half-life [11]: 39.3 h
median duration of response ([12]; 18 KS patients): > 25 weeks
median time to response ([12]; 18 KS patients): 4 weeks
overall response rate ([12]; 18 KS patients, one complete and seven partial responses): 44%
doses not tolerated ([12]; KS patients): > 50 mg/m^2/day
evaluable patients with decrease in plasma concentration of MMP-2 ([12]; KS patients): 61%
evaluable patients with decrease in plasma concentration of MMP-9 ([12]; KS patients): 37%
doses reasonably well tolerated ([12]; KS patients, dose levels 25, 50 and 70): up to 70 mg/m^2/day
increase of MMP-2 level from baseline ([12]; non-responding patients): 300 ng/mL
decrease of MMP-2 level from baseline ([12]; responding patients): 56 ng/mL
half-life [13]: approximately 6 h
instances of lung metastases ([14]; daily gavage at 40 mg/kg for 7 days, controls 59.5±13.9): 28.9±15.4 tumors/animal
decrease of primary tumor incidence ([14]; pre-dosing the rats for 7 days): 55±9%
delay of tumor growth ([14]; pre-dosing the rats for 7 days): 27±9.3%
reduction in metastases ([14]; pre-dosing the rats for 7 days): 58±8%
vascular mimicry [15]: inhibited this mechanism
adverse effects or weight loss [16]: no adverse effects or weight loss
Ki (MMP-2 [17]; competitive component, read-out: dissociation binding constant (Ki) value for MMP-2): 74 µM
Ki (MMP-2 [17]; [23]): 148 µM
total apparent clearance [18, 22]: 0.163 ± 0.0967 mL/min/kg
median half-life ([18]; 35 patients, one-compartment model): approximately 56.1 h
median apparent total clearance ([18]; humans): 0.17 mL/min/kg
median pseudo-steady-state apparent volume of distribution ([18]; humans): 0.64 L/kg
rank as MMP-9 inhibitor (MMP-9): second most potent MMP-9 inhibitor
cytotoxicity [19]: significantly cytotoxic
dose up to which plasma levels increased (plateau of steady-state concentration above) [20]: up to 50 mg/m^2/day
iNOS mRNA degradation (iNOS mRNA): increases iNOS mRNA degradation

C[C@H]1c2cccc(O)c2C(=O)C2=C(O)[C@]3(O)C(=O)C(C(N)=O)=C(O)[C@@H](N(C)C)[C@@H]3[C@@H](O)[C@@H]21 [doxycycline]
hepatotoxic effect [21]: hepatotoxic effect
Ki (MMP-2 [17]; [23]): 144 µM
cytotoxicity [19]: significantly cytotoxic
effect on immune responses (immune responses): moderately inhibit immune responses
